Earlier results as cited in patent US10751294B1, “Development of an optimized avanafil-loaded invasomal transdermal film” (King Abdulaziz University, priority 2019, dated 2020).
Like-named read-outs stand apart in the source and are kept apart here.

How the values were obtained:
[1] = not given; remark: listed apart in the source
[2] = in water, methanol, and ethanol at 25° C.
[3] = not given; remark: listed apart in the source

Structure (SMILES) | pKa (acidic) | pKa (basic) | log P [1] | solubility [2] | drug permeation enhanced (fold) ([3]; from invasomes) | drug permeation enhanced (fold) ([3]; from transfersomes)
COc1ccc(CN=c2[nH]c(N3CCC[C@H]3CO)ncc2C(=O)NCc2ncccn2)cc1Cl [AVA, Avanafil] | 11.84 | 5.89 | 1.84 | < 1000 µg/mL | – | –
O=C(O)CN(CC(=O)O)Cc1cc2c(cc1O)Oc1cc(O)c(CN(CC(=O)O)CC(=O)O)cc1C21OC(=O)c2ccccc21 [calcein] | – | – | – | – | 7.2 fold | 1.8 fold
